Results published in patent US20090117563A1, “Identification of TRPML3 (MCOLN3) as a Salty Taste Receptor and Use in Assays for Identifying Taste (Salty) Modulators and/or Therapeutics that Modulate Sodium Transport, Absorption or Excretion and/or Aldosterone and/or Vasopressin Production or Release” (priority 2007, published 2009).

T1: human TRPML3 (Homo sapiens, UniProt Q8TDD5)
T1 construct: expressed in transfected cells
T1 sequence (Q8TDD5 1-553): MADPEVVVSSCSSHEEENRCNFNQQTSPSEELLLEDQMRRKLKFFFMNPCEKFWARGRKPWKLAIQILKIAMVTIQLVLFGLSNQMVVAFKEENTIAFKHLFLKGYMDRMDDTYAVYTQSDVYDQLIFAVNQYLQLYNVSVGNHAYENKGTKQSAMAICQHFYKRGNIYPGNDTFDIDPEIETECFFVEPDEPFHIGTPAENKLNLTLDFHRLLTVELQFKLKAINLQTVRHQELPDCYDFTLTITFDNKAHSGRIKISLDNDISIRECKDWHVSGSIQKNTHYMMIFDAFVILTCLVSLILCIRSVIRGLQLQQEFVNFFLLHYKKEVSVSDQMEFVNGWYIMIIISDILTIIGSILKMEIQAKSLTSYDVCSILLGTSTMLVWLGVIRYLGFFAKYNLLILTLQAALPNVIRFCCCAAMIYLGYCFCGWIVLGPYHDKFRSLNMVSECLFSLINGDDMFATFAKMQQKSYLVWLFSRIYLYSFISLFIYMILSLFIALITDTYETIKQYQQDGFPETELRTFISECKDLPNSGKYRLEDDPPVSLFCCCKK

T2: A419P TRPML3 (Homo sapiens, UniProt Q8TDD5, A419P)
T2 construct: expressed in transfected cells
T2 sequence (Q8TDD5 1-553 A419P): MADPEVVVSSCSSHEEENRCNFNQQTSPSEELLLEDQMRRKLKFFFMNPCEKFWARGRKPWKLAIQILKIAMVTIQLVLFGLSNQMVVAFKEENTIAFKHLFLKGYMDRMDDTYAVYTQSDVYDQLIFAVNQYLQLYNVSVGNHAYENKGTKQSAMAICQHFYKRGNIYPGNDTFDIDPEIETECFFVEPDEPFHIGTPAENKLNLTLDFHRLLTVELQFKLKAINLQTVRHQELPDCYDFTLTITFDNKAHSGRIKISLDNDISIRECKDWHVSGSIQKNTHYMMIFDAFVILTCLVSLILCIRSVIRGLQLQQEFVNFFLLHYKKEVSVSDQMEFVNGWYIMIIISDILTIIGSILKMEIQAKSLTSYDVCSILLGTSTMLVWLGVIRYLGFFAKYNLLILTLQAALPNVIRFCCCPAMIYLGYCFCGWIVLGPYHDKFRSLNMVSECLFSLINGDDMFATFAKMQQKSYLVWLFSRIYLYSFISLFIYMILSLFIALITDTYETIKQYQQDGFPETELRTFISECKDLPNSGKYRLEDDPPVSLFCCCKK

T3: Homo sapiens TRPML3 A419P, expressed in HEK293 cells (human, UniProt Q8TDD5 1-553)
T3 sequence: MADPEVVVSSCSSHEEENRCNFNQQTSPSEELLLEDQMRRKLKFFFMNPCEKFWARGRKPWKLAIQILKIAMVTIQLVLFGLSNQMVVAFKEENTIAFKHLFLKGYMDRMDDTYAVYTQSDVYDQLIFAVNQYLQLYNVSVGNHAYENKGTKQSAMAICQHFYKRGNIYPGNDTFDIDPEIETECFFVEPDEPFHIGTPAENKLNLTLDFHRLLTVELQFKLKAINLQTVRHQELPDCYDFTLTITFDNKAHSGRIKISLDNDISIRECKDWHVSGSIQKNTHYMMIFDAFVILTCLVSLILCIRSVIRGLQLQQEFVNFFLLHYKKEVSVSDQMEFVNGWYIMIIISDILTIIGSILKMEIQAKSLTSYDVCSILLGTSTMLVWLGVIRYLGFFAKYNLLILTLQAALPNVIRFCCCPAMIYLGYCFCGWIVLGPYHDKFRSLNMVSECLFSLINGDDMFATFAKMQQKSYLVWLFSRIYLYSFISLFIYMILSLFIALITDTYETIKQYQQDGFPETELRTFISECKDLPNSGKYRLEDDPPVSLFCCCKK


Columns and labels:
human TRPML3 = molecular target: T1, human TRPML3; test: Whole cell patch clamp electrophysiology of cells expressing human TRPML3; assay type: cell-based
Text: The whole cell voltage clamp technique is an electrophysiology method that measures the macroscopic electrical current flowing across the entire plasma membrane though protein channels. Live mammalian cells are placed in a special microscope chamber containing extracellular solution. Guided by a micromanipulator and under visual control, a small diameter glass pipette filled with an electrically conductive salt solution is first attached to the cell membrane using gentle negative pressure resulting in a high resistance gigaOhm seal. The membrane patch within the pipette is disrupted using further suction resulting in the whole cell patch clamp configuration. The whole cell patch clamp configuration allows the combined measurement of all ion channels proteins within the membrane or macroscopic current. Using the patch clamp amplifier in combination with the whole-cell patch clamp configuration allows the operator to control the voltage, or potential difference across the entire cell membrane, as well as the both the internal and external ionic composition of the cell. […]

αENaC = molecular target: T4, αENaC (Homo sapiens, UniProt P37088); test: FLIPR membrane potential dye assay, HEK293 cells transfected with αENaC; assay type: cell-based; settings: 30 uM Amiloride; αENaC versus A419P-TRPML3 transfected cells
T4 construct: expressed in transfected cells; host or cells: HEK293, transient transfection
Procedure: (§1) HEK293 cells were transiently transfected with RFP, αENaC or A419P-TRPML3 and were loaded with a membrane potential dye (R-8034; Molecular Devices) in HBSS at room temperature for 30 minutes. Membrane potential (fluorescent signal) was monitored on a FLIPR system (Molecular Devices).
(§2) HEK293 cells were transiently transfected with RFP, A419P-TRPML3 or αENaC plasmid and were loaded with a membrane potential dye (R-8034; Molecular Devices) in HBSS at room temperature for 30 minutes. HBSS (control), 3 mM gadolinium and 30 uM Amiloride were added to the cells and resulting changes in membrane potential (fluorescent signal) was monitored on a FLIPR system (Molecular Devices).

[1] = test system: human salty taste (sodium chloride taste intensity); test: Human salty taste perception (perceived salt intensity); assay type: in vivo; settings: tested at 300-fold (amiloride) and 3000-fold above IC50 values for alpha beta gamma ENaC
Text: Unlike other mammals, amiloride only slightly reduces the intensity of sodium chloride taste, i.e., by about 15-20% when used at concentrations that specifically modulate ENaC function (Halpern, B. P. (1998) Neuroscience and Behavioral Reviews. 23: 5-47). […] Based thereon, it was theorized that other (ENaC genes) were involved in human salty taste perception.

[2] = test system: human salty taste (sodium chloride taste intensity); settings: concentrations that specifically modulate ENaC function; cited from earlier work
A419P TRPML3 = molecular target: T2, A419P TRPML3; test: FLIPR membrane potential dye assay, HEK293 cells expressing A419P-TRPML3; assay type: cell-based; settings: amiloride
Text: Specific cell-based assays for the discovery of TRPML3 modulators were developed which that could ultimately be used in food and beverages to modulate saltiness perception. A419P-TRPML3 function was monitored in HEK293 cells transiently transfected or transduced with the gene encoding A419P-TRPML3 and using specific membrane potential dyes (FMPs; Molecular Devices).
as §1
HEK293 cells were transiently transfected with RFP or A419P-TRPML3 and were loaded with a membrane potential dye (R-8034; Molecular Devices) in HBSS at room temperature for 30 minutes. Membrane potential (fluorescent signal) was monitored on a FLIPR system (Molecular Devices).
HEK293 cells were transiently transfected with RFP or A419P-TRPML3 and were loaded with a membrane potential dye (R-8034; Molecular Devices) in HBSS at room temperature for 30 minutes. HBSS, NMDG and increasing concentrations of gadolinium were added to the cells and resulting changes in membrane potential (fluorescent signal) was monitored on a FLIPR system (Molecular Devices).
as §2

[3] = molecular target: T3, Homo sapiens TRPML3 A419P, expressed in …; test: cell-based or functional assay

T4 sequence (P37088 whole entry): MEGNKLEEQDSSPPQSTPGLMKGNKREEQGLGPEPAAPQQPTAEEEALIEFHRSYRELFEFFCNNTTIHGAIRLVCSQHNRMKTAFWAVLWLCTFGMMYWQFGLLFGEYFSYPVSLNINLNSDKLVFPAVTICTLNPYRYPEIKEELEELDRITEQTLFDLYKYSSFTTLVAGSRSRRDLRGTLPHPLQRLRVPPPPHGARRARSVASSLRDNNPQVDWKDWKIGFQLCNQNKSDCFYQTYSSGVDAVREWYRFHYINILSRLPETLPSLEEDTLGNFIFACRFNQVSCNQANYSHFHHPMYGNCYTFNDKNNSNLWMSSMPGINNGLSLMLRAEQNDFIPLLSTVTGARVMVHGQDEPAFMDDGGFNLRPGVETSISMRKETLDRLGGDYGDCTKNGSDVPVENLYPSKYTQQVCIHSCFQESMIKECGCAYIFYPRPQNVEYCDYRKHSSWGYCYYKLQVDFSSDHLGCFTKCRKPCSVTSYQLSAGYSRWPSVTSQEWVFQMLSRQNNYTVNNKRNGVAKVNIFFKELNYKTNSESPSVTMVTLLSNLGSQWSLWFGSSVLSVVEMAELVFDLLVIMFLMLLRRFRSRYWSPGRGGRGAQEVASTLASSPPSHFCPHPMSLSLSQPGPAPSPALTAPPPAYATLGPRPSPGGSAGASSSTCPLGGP

| Molecule | block of TRPML3 sodium conductance (current-voltage curves) (human TRPML3; 30 uM amiloride) | block of TRPML3 (human TRPML3; no concentration given) | effect on basal fluorescence counts, specificity (αENaC) | effect on perceived human salt intensity [1] | reduction of the intensity of sodium chloride taste [2] | effect on the increased basal fluorescence elicited by A419P-TRPML3 (A419P TRPML3) | inward currents, whole cell patch clamp, HEK293 cells coexpressing A419P (0.5 ug) and WT (1.5 ug) TRPML3 cDNAs [3] |
| --- | --- | --- | --- | --- | --- | --- | --- |
| N=C(N)NC(=O)c1nc(Cl)c(N)nc1N [amiloride] | not blocked | not blocked | preferentially reduces basal fluorescence counts | did not elicit a significant effect | 15-20% | no effect |  |
| NC(=Nc1ccccc1)NC(=O)c1nc(Cl)c(N)nc1N [phenamil] |  |  |  | did not elicit a significant effect |  |  |  |
| Homo sapiens TRPML3 (NM_018298), wild-type, non codon optimized cDNA, expressed in HEK293 cells (other) MADPEVVVSSCSSHEEENRCNFNQQTSPSEELLLEDQMRRKLKFFFMNPCEKFWARGRKPWKLAIQILKIAMVTIQLVLFGLSNQMVVAFKEENTIAFKHLFLKGYMDRMDDTYAVYTQSDVYDQLIFAVNQYLQLYNVSVGNHAYENKGTKQSAMAICQHFYKRGNIYPGNDTFDIDPEIETECFFVEPDEPFHIGTPAENKLNLTLDFHRLLTVELQFKLKAINLQTVRHQELPDCYDFTLTITFDNKAHSGRIKISLDNDISIRECKDWHVSGSIQKNTHYMMIFDAFVILTCLVSLILCIRSVIRGLQLQQEFVNFFLLHYKKEVSVSDQMEFVNGWYIMIIISDILTIIGSILKMEIQAKSLTSYDVCSILLGTSTMLVWLGVIRYLGFFAKYNLLILTLQAALPNVIRFCCCAAMIYLGYCFCGWIVLGPYHDKFRSLNMVSECLFSLINGDDMFATFAKMQQKSYLVWLFSRIYLYSFISLFIYMILSLFIALITDTYETIKQYQQDGFPETELRTFISECKDLPNSGKYRLEDDPPVSLFCCCKK |  |  |  |  |  |  | 2 fold against A419P cDNA alone |
